Laboratory results as given in US20250041263A1, “USE OF CATECHIN FOR THE TREATMENT OF FGFR-RELATED BONE REPAIR AND BONE FORMATION IMPAIRMENT” (INSTITUT NATIONAL DE LA SANTÉ ET DE LA RECHERCHE MÉDICALE, priority 2021, published 2025).

Tested on: HCH mice (Fgfr3^N534K/+)
Assay: Non-stabilized mandibular fracture repair in HCH mouse model (microCT, repair grade)
Assay type: in vivo
Conditions: for BV/TV, treated vs untreated HCH mice: p<0.05
Description: I-Study of mandibular bone repair in the mouse model of hypochondroplasia (Fgfr3^[…]/+) Mandibular bone repair was studied in the HCH mouse model (Fgfr3^[…]/+). The experiments were performed in adult animals at 6 weeks of age, and mice were euthanized at 4 key points: during bone repair (10, 14, 21 days post fracture), and at the end of the normal bone healing process i.e. at 28 days post fracture. Vertical mandibular fractures were performed in the ascending ramus region in Fgfr3^[…]/+ and Fgfr3^+/+ mice. This is a non-stabilized mandibular fracture protocol allowing to analyze the endochondral bone repair process. Four batches (n=100) of Fgfr3^[…]/+ and Fgfr3^+/+ mandible fractures corresponding to different key stages of repair were studied (day 10, day 14, day 21, day 28). Using collagen type II (proliferative cartilage), type X (hypertrophic cartilage) and type I (bone) immunolabelling, we observed that the endochondral process is disturbed, we noted a delayed cartilage resorption, a reduction in the size of hypertrophic chondrocytes area and a defect in bone formation within the repair callus in Fgfr3^[…]/+ compared to Fgfr3^+/+. […] We observed the presence of pseudarthrosis (fibrosis in the callus) in Fgfr3^[…]/+ mice whereas we observed 100% of bone in Fgfr3^+/+ callus. Considering the quality of the newly formed bone at day 28, we defined four grades of repair and classified the mice according to their repair grade (from 1 to 4). The defective repair is significant in Fgfr3^[…]/+ compared to Fgfr3^+/+ (Data not shown). HCH mice (Fgfr3^[…]/+) were treated with (-)-epicatechin (subcutaneous injection at 0.3 mg/kg, 3 times per week) from day 0 (facture of the mandible) to day 14 or day 28. The bone repair analyses were evaluated by microCT scans at day 14 (FIG. 1A) and day 28 (FIG. 1B) post fracture.

[1] = day 28 grade repair, treated HCH mice
[2] = microCT, day 14 post fracture, FIG. 1A
[3] = microCT, day 28 post fracture, FIG. 1B
[4] = summary statement, time not stated

Compound	Complete bone healing (grade 1), mice with grade / treated mice [1]	Restoration of bone continuity, but presence of mild bone defects (grade 2), mice with grade / treated mice [1]	presence of a bone callus, but with partial bone discontinuity (grade 3), mice with grade / treated mice [1]	pseudarthrosis in treated HCH mice (day 28 post fracture)	BV/TV of treated Fgfr3^N534K/+ mandibles (in words) [2]	volume of the callus, treated vs untreated Fgfr3^N534K/+ (in words) [2]	BV/TV, treated vs untreated HCH mice (microCT, day 14 post fracture, subcutaneous 0.3 mg/kg, 3 times per week from day 0)	BV/TV of treated Fgfr3^N534K/+ mandibles (in words) [3]	volume of the callus, treated vs untreated Fgfr3^N534K/+ (in words) [3]	volume of the callus, treated vs untreated HCH mice (microCT, day 28 post fracture, subcutaneous 0.3 mg/kg, 3 times per week from day 0, p<0.01) [%]	BV/TV, treated vs untreated HCH mice (microCT, day 28 post fracture, subcutaneous 0.3 mg/kg, 3 times per week from day 0)	mandible bone formation and repair / defective bone reparation of the callus (overall, in words) [4]	bone volume/total volume (overall, in words) [4]	pseudarthrosis (overall, in words) [4]
Oc1cc(O)c2c(c1)O[C@H](c1ccc(O)c(O)c1)[C@H](O)C2 [(−)-epicatechin, (2R,3R)-2-(3,4-dihydroxyphenyl)-3,4-dihydro-2H-chromene-3,5,7-triol]	1/9	6/9	2/9	did not observe pseudarthrosis	increased	unchanged	+19%	increased	decreased	−39.8	+6.3%	improves	–	–
catechin	–	–	–	–	–	–	–	–	–	–	–	partially restores	increases	without pseudarthrosis
